Measured values: patent US4127714A, “Anthracycline glycosides” (priority 1976, dated 1978)
Values after ≈ are worked out from the molar mass of the structure shown. Counter-ions that a name gives are not always drawn.

Tests used:
animal tumor systems = conditions: reported in literature; cited from earlier work
mouse L1210 leukemia = assay: Prolongation of survival time of CDF1 mice inoculated intraperitoneally with L1210 leukemia cells; type: in vivo, mouse (CDF1); conditions: for inhibitory effects on mouse L1210 leukemia: summary statement in words
Experimental: Rhodirubin A and B show a marked antitumor activity with low toxicity in experimental animal tests and thus are therapeutically useful in inhibiting the growth of animal tumors. […] For example, CDF1 mice were inoculated intraperitoneally with 1 × 10^6 L1210 cells/mouse and 0.1-0.2 ml. of drug solution then administered intraperitoneally for 10 consecutive days. Observation was carried out for 30 days, and the % of prolongation of survival time to the control mice intraperitoneally administered with physiological saline was as follows: […]

Staph. aureus FDA 209P = assay: Minimum inhibitory concentration, broth dilution method; type: cell-based; conditions: Staphylococcus aureus, FDA209P
Staph. aureus Smith = assay: as above; type: cell-based; conditions: Staphylococcus aureus
B. subtilis ATCC 6633 = assay: as above; type: cell-based; conditions: Bacillus subtilis, ATCC6633
B. cereus ATCC 9634 = assay: as above; type: cell-based; conditions: Bacillus cereus, ATCC9634
B. megaterium NRRL-938 = assay: as above; type: cell-based; conditions: Priestia megaterium, NRRL938
Sarcina lutea ATCC 9341 = assay: as above; type: cell-based; conditions: Micrococcus luteus, ATCC9341
Micrococcus flavus = assay: as above; type: cell-based
Coryne: bovis = assay: as above; type: cell-based
[1] = tested on: Ps. fluorescens NIHJB-254; assay: as above; type: cell-based; conditions: Pseudomonas fluorescens, NIHJB254
Proteus morganii = assay: as above; type: cell-based; conditions: Morganella morganii
[2] = tested on: Mycobacterium smegmatis ATCC 607; assay: as above; type: cell-based; conditions: Mycolicibacterium smegmatis, ATCC607
[3] = tested on: Candida albicans IAM 4905; assay: as above; type: cell-based; conditions: IAM4905
[4] = tested on: Candida tropicalis IAM 4942; assay: as above; type: cell-based; conditions: IAM4942
in vivo = conditions: mouse, ip, mice, intraperitoneal injection
Source text: The LD50 values upon intraperitoneal injection (in mice) of rhodirubin A and B are as follows: […]

gram-positive bacteria = assay: Antimicrobial activity (summary statement); type: cell-based; conditions: against gram-positive bacteria
[5] = tested on: solid and ascitic forms of malignant tumors in mammals, e.g. mouse leukemia L1210; assay: Inhibition of growth of solid and ascitic malignant tumors in mammals (summary statement); type: in vivo
mammalian tumor cells = assay: Cytotoxicity to mammalian tumor cells in culture
[6] = Toxicity in experimental animal tests (summary statement); conditions: summary statement in words
[7] = in methanol, n-butanol, acetone, ethyl acetate, chloroform, toluene, benzene and dimethylsulfoxide
[8] = in water, n-hexane and petroleum ether

CC(=O)[C@]1(O)Cc2c(O)c3c(c(O)c2[C@@H](O[C@H]2C[C@H](N)[C@H](O)[C@H](C)O2)C1)C(=O)c1c(O)cccc1C3=O [carminomycin]
activity against several animal tumor systems (animal tumor systems): active against several animal tumor systems

CCC1(O)CC(OC2CC(N(C)C)C(OC3CCC(OC4CCC(O)C(C)O4)C(C)O3)C(C)O2)c2c(cc3c(c2O)C(=O)c2c(O)ccc(O)c2C3=O)C1C(=O)OC (centres unmarked) [rhodirubin B (HC1 salt)]
Prolongation of the survival time T/C (%) (mouse L1210 leukemia; 0.6 mg./kg./day, i.p., 10 consecutive days, observed 30 days, vs physiological saline controls): 107%
Prolongation of the survival time T/C (%) (mouse L1210 leukemia; 1.25 mg./kg./day, i.p., 10 consecutive days, observed 30 days, vs physiological saline controls): 126%
Prolongation of the survival time T/C (%) (mouse L1210 leukemia; 2.5 mg./kg./day, i.p., 10 consecutive days, observed 30 days, vs physiological saline controls): 215%
Prolongation of the survival time T/C (%) (mouse L1210 leukemia; 5 mg./kg./day, i.p., 10 consecutive days, observed 30 days, vs physiological saline controls): 179%
Prolongation of the survival time T/C (%) (mouse L1210 leukemia; 8.5 mg./kg./day, i.p., 10 consecutive days, observed 30 days, vs physiological saline controls): 160%
Prolongation of the survival time T/C (%) (mouse L1210 leukemia; 10 mg./kg./day, i.p., 10 consecutive days, observed 30 days, vs physiological saline controls): 104%

CCC1(O)CC(OC2CC(N(C)C)C(OC3CC(O)C(OC4CCC(O)C(C)O4)C(C)O3)C(C)O2)c2c(cc3c(c2O)C(=O)c2c(O)ccc(O)c2C3=O)C1C(=O)OC (centres unmarked) [rhodirubin A (HC1 salt)]
Prolongation of the survival time T/C (%) (mouse L1210 leukemia; ip, 0.6 mg/kg, 720 h): 102%
Prolongation of the survival time T/C (%) (mouse L1210 leukemia; ip, 1.25 mg/kg, 720 h): 117%
Prolongation of the survival time T/C (%) (mouse L1210 leukemia; ip, 2.5 mg/kg, 720 h): 167%
Prolongation of the survival time T/C (%) (mouse L1210 leukemia; ip, 5 mg/kg, 720 h): 195%
Prolongation of the survival time T/C (%) (mouse L1210 leukemia; ip, 8.5 mg/kg, 720 h): 121%
Prolongation of the survival time T/C (%) (mouse L1210 leukemia; ip, 10 mg/kg, 720 h): 87%

CCC1(O)CC(OC2CC(N(C)C)C(OC3CC(O)C(OC4CCC(O)C(C)O4)C(C)O3)C(C)O2)c2c(cc3c(c2O)C(=O)c2c(O)ccc(O)c2C3=O)C1C(=O)OC (centres unmarked) [rhodirubin A]
MIC (Staph. aureus FDA 209P): 1.56 µg/mL (≈ 1.88 µM)
MIC (Staph. aureus Smith): 0.4 µg/mL (≈ 0.482 µM)
MIC (B. subtilis ATCC 6633): 0.78 µg/mL (≈ 0.94 µM)
MIC (B. cereus ATCC 9634): 0.2 µg/mL (≈ 0.241 µM)
MIC (B. megaterium NRRL-938): 0.78 µg/mL (≈ 0.94 µM)
MIC (Sarcina lutea ATCC 9341): 0.4 µg/mL (≈ 0.482 µM)
MIC (Micrococcus flavus): 0.2 µg/mL (≈ 0.241 µM)
MIC (Coryne: bovis): 0.2 µg/mL (≈ 0.241 µM)
MIC [1]: 100 µg/mL (≈ 120 µM)
MIC (Proteus morganii): > 100 µg/mL
MIC [2]: 6.25 µg/mL (≈ 7.53 µM)
MIC [3]: > 100 µg/mL
MIC [4]: > 100 µg/mL
inhibitory effects on mouse L1210 leukemia (mouse L1210 leukemia): marked inhibitory effects
LD50 (in vivo): 7.5 to 10 mg/kg
antimicrobial activity (gram-positive bacteria): possess antimicrobial activity, especially against gram-positive bacteria
antimicrobial activity (gram-positive bacteria; listed as Rhodirubin A): exhibit antimicrobial activity against gram-positive bacteria
inhibition of growth of malignant tumors [5]: inhibit the growth of solid and ascitic forms of malignant tumors in mammals
Solubility (Solubility; in diethyl ether): slightly soluble
Solubility (Solubility; [7]): soluble
Solubility (Solubility; [8]): insoluble
cytotoxicity (mammalian tumor cells): high cytotoxicity
toxicity [6]: low toxicity

CCC1(O)CC(OC2CC(N(C)C)C(OC3CCC(OC4CCC(O)C(C)O4)C(C)O3)C(C)O2)c2c(cc3c(c2O)C(=O)c2c(O)ccc(O)c2C3=O)C1C(=O)OC (centres unmarked) [rhodirubin B]
MIC (Staph. aureus FDA 209P): 1.56 µg/mL (≈ 1.92 µM)
MIC (Staph. aureus Smith): 0.78 µg/mL (≈ 0.958 µM)
MIC (B. subtilis ATCC 6633): 1.56 µg/mL (≈ 1.92 µM)
MIC (B. cereus ATCC 9634): 0.4 µg/mL (≈ 0.491 µM)
MIC (B. megaterium NRRL-938): 1.56 µg/mL (≈ 1.92 µM)
MIC (Sarcina lutea ATCC 9341): 0.78 µg/mL (≈ 0.958 µM)
MIC (Micrococcus flavus): 0.2 µg/mL (≈ 0.246 µM)
MIC (Coryne: bovis): 0.4 µg/mL (≈ 0.491 µM)
MIC [1]: 100 µg/mL (≈ 123 µM)
MIC (Proteus morganii): > 100 µg/mL
MIC [2]: 3.1 µg/mL (≈ 3.81 µM)
MIC [3]: > 100 µg/mL
MIC [4]: > 100 µg/mL
inhibitory effects on mouse L1210 leukemia (mouse L1210 leukemia): marked inhibitory effects
LD50 (in vivo): 10 to 12.5 mg/kg
antimicrobial activity (gram-positive bacteria): possess antimicrobial activity, especially against gram-positive bacteria
antimicrobial activity (gram-positive bacteria; listed as Rhodirubin B): exhibit antimicrobial activity against gram-positive bacteria
inhibition of growth of malignant tumors [5]: inhibit the growth of solid and ascitic forms of malignant tumors in mammals
Solubility (Solubility; in diethyl ether): slightly soluble
Solubility (Solubility; [7]): soluble
Solubility (Solubility; [8]): insoluble
cytotoxicity (mammalian tumor cells): high cytotoxicity
toxicity [6]: low toxicity
